System: LAPC-4 xenografts
Experiment: Fatty acid determination (GC-FID) in LAPC-4 xenograft experiment
Type: in vivo, mice
Details: 10 mg/kg PO
Protocol: […] The fatty acid profile was next determined by gas chromatography (GC), coupled with a flame ionization detector (FID), using phosphatidylcholine C21:0 (Avanti Polar Lipids) as an internal standard. The GC model 5890 was from Agilent Technologies (Mississauga, ON, Canada). The capillary column used was a HP-88 (100 m × 0.25 mm, […], Agilent Technologies), and the carrier gas was helium at 1.5 mL/min. A total of 56 fatty acids were identified according to their retention time, using fatty acid mixtures as standards.

[1] = LAPC-4 tumor, 28 days (RM-581 group per Table S1)
[2] = LAPC-4 tumor, 28 days, Table S1

Question: How did the “S-FA, liver” value (28 days) turn out when `C#C[C@]1(O)CC[C@H]2[C@@H]3CCc4cc(OC)c(N5CCN(C(=O)[C@@H]6CCCN6C(=O)c6ccc7ccccc7n6)CC5)cc4[C@H]3CC[C@@]21C` [RM-581] was run?
Answer: The value was 12.5 mg/g.

Question: What about the “S-FA, plasma” value (28 days) of the same compound?
Answer: The value was 1.10 µg/mL.

Question: And the “S-FA, plasma, % vs CTL” value (28 days)?
Answer: The value was “+2.8%”.

Question: And the “S-FA, tumor” value (28 days)?
Answer: The value was 8.15 mg/g.

Question: And the “T-FA, liver” value (28 days)?
Answer: The value was 34.5 mg/g.

Question: And the “T-FA, liver, % vs CTL” value (28 days)?
Answer: The value was “+19.8%”.

Question: And the “T-FA, plasma” value (28 days)?
Answer: The value was 3.71 µg/mL.

Question: And the “T-FA, plasma, % vs CTL” value (28 days)?
Answer: The value was “+1.6%”.

Question: What about the “T-FA, tumor” value (28 days) of the same compound?
Answer: Its value is 24.5 mg/g.

Question: What about the “U-FA, liver” value (28 days) of the same compound?
Answer: The value was 21.9 mg/g.

Question: What about the “U-FA, plasma” value (28 days) of the same compound?
Answer: Its value is 2.59 µg/mL.

Question: What about the “U-FA, plasma, % vs CTL” value (28 days) of the same compound?
Answer: The value was “+1.6%”.

Question: And the “U-FA, tumor” value (28 days)?
Answer: Its value is 16.0 mg/g.

Question: What about the “Adrenic acid-1 (7c10c13c16c) 22:4, % vs CTL” value (LAPC-4 tumor, 28 days) of the same compound?
Answer: Its value is “+8.6%”.

Question: What about the “Adrenic acid-1 (7c10c13c16c) 22:4, FA RM-581” value (LAPC-4 tumor, 28 days) of the same compound?
Answer: The value was 0.380 mg/g.

Question: And the “Adrenic acid-2 (4c7c10c13c16c) 22:5, % vs CTL” value (LAPC-4 tumor, 28 days)?
Answer: The value was −12%.

Question: And the “Adrenic acid-2 (4c7c10c13c16c) 22:5, FA RM-581” value (LAPC-4 tumor, 28 days)?
Answer: The value was 0.260 mg/g.

Question: What about the “Alpha-linolenic acid (9c12c15c) 18:3, FA RM-581” value (LAPC-4 tumor, 28 days) of the same compound?
Answer: The value was 0.230 mg/g.

Question: What about the “Arachidonic (5c8c11c14c) 20:4, % vs CTL” value (LAPC-4 tumor, 28 days) of the same compound?
Answer: Its value is −2.1%.

Question: What about the “Arachidonic (5c8c11c14c) 20:4, FA RM-581” value (LAPC-4 tumor, 28 days) of the same compound?
Answer: Its value is 2.150 mg/g.

Question: And the “Cervonic acid 22:6, % vs CTL” value (LAPC-4 tumor, 28 days)?
Answer: The value was 0%.

Question: And the “Cervonic acid 22:6, FA RM-581” value (LAPC-4 tumor, 28 days)?
Answer: The value was 0.530 mg/g.

Question: And the “Dihomo-γ-linolenic acid (8c11c14c) 20:3, FA RM-581” value (LAPC-4 tumor, 28 days)?
Answer: The value was 0.580 mg/g.

Question: What about the “Dimethoxyhexadecanoic acid 16:0, % vs CTL” value (LAPC-4 tumor, 28 days) of the same compound?
Answer: Its value is 0%.

Question: And the “Dimethoxyhexadecanoic acid 16:0, FA RM-581” value (LAPC-4 tumor, 28 days)?
Answer: Its value is 0.170 mg/g.

Question: And the “Docosapentaenoic acid (7c10c13c16c19c) 22:5, % vs CTL” value (LAPC-4 tumor, 28 days)?
Answer: The value was “+17%”.

Question: What about the “Docosapentaenoic acid (7c10c13c16c19c) 22:5, FA RM-581” value (LAPC-4 tumor, 28 days) of the same compound?
Answer: The value was 0.140 mg/g.

Question: And the “Lignoceric acid 24:0, % vs CTL” value (LAPC-4 tumor, 28 days)?
Answer: Its value is “+23%”.

Question: What about the “Lignoceric acid 24:0, FA RM-581” value (LAPC-4 tumor, 28 days) of the same compound?
Answer: The value was 0.160 mg/g.

Question: And the “Linoleic acid (9c12c) 18:2, FA RM-581” value (LAPC-4 tumor, 28 days)?
Answer: The value was 4.435 mg/g.

Question: And the “Myristic acid 14:0, FA RM-581” value (LAPC-4 tumor, 28 days)?
Answer: Its value is 0.275 mg/g.

Question: What about the “Nervonic acid (15c) 24:1, % vs CTL” value (LAPC-4 tumor, 28 days) of the same compound?
Answer: The value was “+18%”.

Question: And the “Nervonic acid (15c) 24:1, FA RM-581” value (LAPC-4 tumor, 28 days)?
Answer: The value was 0.130 mg/g.

Question: And the “Oleic acid (9c) 18:1, FA RM-581” value (LAPC-4 tumor, 28 days)?
Answer: The value was 4.920 mg/g.

Question: And the “Palmitic acid 16:0, FA RM-581” value (LAPC-4 tumor, 28 days)?
Answer: The value was 5.095 mg/g.

Question: And the “Palmitoleic acid (9c) 16:1, FA RM-581” value (LAPC-4 tumor, 28 days)?
Answer: The value was 1.035 mg/g.

Question: What about the “Stearic acid 18:0, % vs CTL” value (LAPC-4 tumor, 28 days) of the same compound?
Answer: Its value is “+3.5%”.

Question: And the “Stearic acid 18:0, FA RM-581” value (LAPC-4 tumor, 28 days)?
Answer: Its value is 2.355 mg/g.

Question: What about the “Vaccenic acid (11c) 18:1, % vs CTL” value (LAPC-4 tumor, 28 days) of the same compound?
Answer: The value was “+5.3%”.

Question: And the “Vaccenic acid (11c) 18:1, FA RM-581” value (LAPC-4 tumor, 28 days)?
Answer: Its value is 0.690 mg/g.

Question: And the “Adrenic acid-1 (7c10c13c16c) 22:4, % of Total FA” value [1]?
Answer: The value was 1.54%.

Question: What about the “Adrenic acid-2 (4c7c10c13c16c) 22:5, % of Total FA” value [1] of the same compound?
Answer: The value was 1.07%.

Question: And the “Alpha-linolenic acid (9c12c15c) 18:3, % of Total FA” value [1]?
Answer: The value was 0.94%.

Question: What about the “Arachidonic (5c8c11c14c) 20:4, % of Total FA” value [1] of the same compound?
Answer: Its value is 8.77%.

Question: What about the “Cervonic acid 22:6, % of Total FA” value [1] of the same compound?
Answer: The value was 2.18%.

Question: What about the “Dihomo-γ-linolenic acid (8c11c14c) 20:3, % of Total FA” value [1] of the same compound?
Answer: The value was 2.35%.

Question: And the “Dimethoxyhexadecanoic acid 16:0, % of Total FA” value [1]?
Answer: The value was 0.68%.

Question: What about the “Docosapentaenoic acid (7c10c13c16c19c) 22:5, % of Total FA” value [1] of the same compound?
Answer: Its value is 0.57%.

Question: And the “Lignoceric acid 24:0, % of Total FA” value [1]?
Answer: The value was 0.65%.

Question: What about the “Linoleic acid (9c12c) 18:2, % of Total FA” value [1] of the same compound?
Answer: The value was 18.1%.

Question: And the “Myristic acid 14:0, % of Total FA” value [1]?
Answer: The value was 1.12%.

Question: What about the “Nervonic acid (15c) 24:1, % of Total FA” value [1] of the same compound?
Answer: Its value is 0.52%.

Question: And the “Oleic acid (9c) 18:1, % of Total FA” value [1]?
Answer: The value was 20.1%.

Question: What about the “Palmitic acid 16:0, % of Total FA” value [1] of the same compound?
Answer: The value was 20.8%.

Question: And the “Palmitoleic acid (9c) 16:1, % of Total FA” value [1]?
Answer: Its value is 4.23%.

Question: And the “Stearic acid 18:0, % of Total FA” value [1]?
Answer: The value was 9.61%.

Question: And the “Vaccenic acid (11c) 18:1, % of Total FA” value [1]?
Answer: Its value is 2.82%.

Question: And the “Arachidic acid 20:0, FA RM-581” value [2]?
Answer: Its value is 0.05 mg/g.

Question: And the “Arachidic acid 20:0, FA RM-581 % of total” value [2]?
Answer: The value was 0.20%.

Question: What about the “Behenic acid 22:0, FA RM-581” value [2] of the same compound?
Answer: Its value is 0.09 mg/g.

Question: And the “Behenic acid 22:0, FA RM-581 % of total” value [2]?
Answer: Its value is 0.35%.

Question: And the “Caproic acid 10:0, FA RM-581” value [2]?
Answer: The value was 0 mg/g.

Question: And the “Caproic acid 10:0, FA RM-581 % of total” value [2]?
Answer: The value was 0.02%.

Question: What about the “Caprylic acid 8:0, FA RM-581” value [2] of the same compound?
Answer: The value was 0 mg/g.

Question: What about the “Caprylic acid 8:0, FA RM-581 % of total” value [2] of the same compound?
Answer: The value was 0%.

Question: And the “Dimethoxyoctadecanoic acid 18:0, FA RM-581” value [2]?
Answer: Its value is 0.09 mg/g.

Question: What about the “Dimethoxyoctadecanoic acid 18:0, FA RM-581 % of total” value [2] of the same compound?
Answer: The value was 0.38%.

Question: What about the “Dimethoxyoctadecenoic acid (9c) w9 18:1, FA RM-581” value [2] of the same compound?
Answer: The value was 0.07 mg/g.

Question: And the “Dimethoxyoctadecenoic acid (9c) w9 18:1, FA RM-581 % of total” value [2]?
Answer: The value was 0.29%.

Question: And the “Elaidic acid (9t) w9 18:1, FA RM-581” value [2]?
Answer: The value was 0 mg/g.

Question: And the “Elaidic acid (9t) w9 18:1, FA RM-581 % of total” value [2]?
Answer: Its value is 0%.

Question: What about the “Erucic acid w9 22:1, FA RM-581” value [2] of the same compound?
Answer: Its value is 0.025 mg/g.

Question: And the “Erucic acid w9 22:1, FA RM-581 % of total” value [2]?
Answer: The value was 0.10%.

Question: And the “FA (1c) w14 15:1, FA RM-581” value [2]?
Answer: The value was 0 mg/g.

Question: And the “FA (1c) w14 15:1, FA RM-581 % of total” value [2]?
Answer: Its value is 0%.

Question: What about the “FA (5c) w10 15:1, FA RM-581” value [2] of the same compound?
Answer: The value was 0 mg/g.

Source: PMC10252594 (Cancers, 2023)
